From publication PMC2922946 (Bioorganic & medicinal chemistry, 2010)
Where a SMILES comes first, the peptide text is derived from it. The star is where a group is joined. Boc = CC(C)(C)OC(=O)*

Tests used:
Hdm2–p53 complex = Hdm2–p53 complex (Homo sapiens, UniProt Q00987); assay: Competitive ELISA, Hdm2–p53 inhibition; format: biochemical; conditions: for % Inhibition at 560 μM: ELISA, Hdm2 (1.5 μM), peptide 560 μM
Hdmx–p53 complex = molecular target: T1, Hdmx–p53 complex (Homo sapiens, UniProt O15151); assay: Competitive ELISA, Hdmx–p53 inhibition; format: biochemical; conditions: for % inhibition at 320 μM / activity against the Hdmx–p53 complex (in words): ELISA; for % inhibition at 320 μM: Hdmx (200 nM), peptide 320 μM
T1 sequence (O15151 1-189): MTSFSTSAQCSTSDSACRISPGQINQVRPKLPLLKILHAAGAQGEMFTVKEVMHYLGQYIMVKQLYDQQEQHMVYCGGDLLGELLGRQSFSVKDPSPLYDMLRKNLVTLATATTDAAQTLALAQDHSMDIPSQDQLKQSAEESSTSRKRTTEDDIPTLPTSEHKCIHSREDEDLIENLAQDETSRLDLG

Hdm2–p53 complex, sequence (Q00987 1-188, one chain of several): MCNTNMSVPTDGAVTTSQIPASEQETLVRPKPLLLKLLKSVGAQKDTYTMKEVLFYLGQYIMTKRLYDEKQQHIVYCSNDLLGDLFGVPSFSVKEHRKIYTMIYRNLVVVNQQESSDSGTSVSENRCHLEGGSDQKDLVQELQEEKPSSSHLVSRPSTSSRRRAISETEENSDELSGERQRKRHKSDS

CC[C@H](C)[C@@H]1NC(=O)[C@H](C)NC(=O)[C@H](C(C)C)NC(=O)[C@H](Cc2ccc(O)cc2)NC(=O)[C@H](Cc2ccc(O)cc2)NC(=O)[C@H](Cc2ccccc2)NC1=O [Compound 3, c-(AIFYYV)] (cyclo(AIFYYV))
level of activity lower than that of the decapeptide control (Hdm2–p53 complex; Hdm2–p53 ELISA, versus control ETFSDLWKLL): approximately 13 fold | antagonism of the Hdmx–p53 complex (Hdmx–p53 complex; wide range of concentrations (up to 1 mM)): did not antagonize

CC(C)(C)OC(=O)N[C@@H](CCCNC(=N)N)C(=O)N[C@@H](Cc1c[nH]c2ccccc12)C(=O)N[C@@H](Cc1ccccc1)C(N)=O [Compound 5a, Boc–RWF–NH2] (Boc-Arg-Trp-Phe-NH2)
% inhibition at 320 μM (Hdmx–p53 complex): No Inhibition

CC(C)C[C@@H]1NC(=O)[C@H](CC(=O)O)NC(=O)[C@H](C)NC(=O)[C@H](Cc2ccccc2)NC(=O)[C@H](Cc2c[nH]c3ccccc23)NC(=O)[C@H](CCCNC(=N)N)NC1=O [Compound 8, c-(ADLRWF)] (cyclo(ADLRWF))
inhibition at 320 µM (Hdmx–p53 complex; read-out: % inhibition at 320 μM): 12 ± 1%

CC(C)CNC(=O)[C@H](Cc1ccccc1)NC(=O)[C@H](Cc1c[nH]c2ccccc12)NC(=O)[C@H](CCCNC(=N)N)NC(=O)OCc1ccccc1 [Compound 12F]
activity against Hdm2–p53 complex (Hdm2–p53 complex; concentration not given): no activity

Boc-DLRWF-NH2 [Compound 7a]
% inhibition at 320 μM (Hdmx–p53 complex): No Inhibition

Boc–DLRWF–N(CH2)5 [Compound 7b]
activity against the Hdmx–p53 complex (in words) (Hdmx–p53 complex): dramatic reduction of activity | % inhibition at 320 μM (Hdmx–p53 complex): 13 ± 1%

Boc–FYYV–N(CH2)5 [Compound 2a]
% Inhibition at 560 μM (Hdm2–p53 complex): No Inhibition | activity toward Hdm2–p53 complex (Hdm2–p53 complex; at concentrations of up to 560 μM): no activity

Boc–IFYYV–N(CH2)5 [Compound 2b]
% Inhibition at 560 μM (Hdm2–p53 complex): 16 ± 1%

Boc–WF–N(CH2)5 [Compound 4b]
activity against the Hdmx–p53 complex (in words) (Hdmx–p53 complex): measurable inhibition | % inhibition at 320 μM (Hdmx–p53 complex): 13 ± 1%
